Test results from PubChem BioAssay AID1996.
In brackets after ≈: the same amount, converted by molar mass.

Details: buffer; pH 7.4; 200.0 µM
With Brc1ccccc1OCCN1CCOCC1.O=C(O)C(=O)O the solubility kinetic was > 56.4 µg/mL. For COC(=O)/C=C1/SC(=NC(=O)c2ccc(OC)cc2)NC1=O, the solubility kinetic was 9.2 µg/mL (≈ 28.7 µM). COc1ccc(CNC(=S)Nc2ccccc2Cl)cc1 gave a solubility kinetic of 12 µg/mL (≈ 39.1 µM). For Cc1ccc(S(=O)(=O)N2CCOCC2)cc1C(=O)OCC(=O)N1CCCCC1, the solubility kinetic was > 61.6 µg/mL. Clc1cccc(CN2CCSCC2)c1 gave a solubility kinetic of 3.8 µg/mL (≈ 16.7 µM). With O=c1c2oc3ccccc3c2ncn1Cc1cccc(Cl)c1 the solubility kinetic was < 0.3 µg/mL. For CC(CN1CCOCC1)OC(=O)c1ccccc1.Cl (stereo not given), the solubility kinetic was > 42.9 µg/mL. For CC1CCC(NC(=O)CN2C(=O)c3ccccc3S2(=O)=O)CC1 (stereo not given), the solubility kinetic was > 50.5 µg/mL. Work on Cc1ccc(O)c(Nc2ncnc3ccccc23)c1.Cl yielded a solubility kinetic of 4.5 µg/mL. For Cn1c(=O)n(C)c2cc(NS(=O)(=O)c3ccccc3)ccc21, the solubility kinetic was 35.5 µg/mL (≈ 112 µM). In the case of CCn1ccnc1CN1CCCC(C(=O)c2ccc(OC)cc2OC)C1 (stereo not given), the solubility kinetic is reported as 48.7 µg/mL (≈ 136 µM). In the case of O=C(O)c1ccccc1S(=O)(=O)CC(=O)N1CCCCC1, the solubility kinetic is reported as > 46.7 µg/mL. For CC(=O)C1=C(O)CCCC1=NCc1nc2ccccc2[nH]1, the solubility kinetic was > 42.5 µg/mL. COCC(=O)OCc1cc2cccc(C)c2[nH]c1=O showed a solubility kinetic of 38.9 µg/mL (≈ 149 µM). Cc1ccc(NC(=O)c2cc3cccc([N+](=O)[O-])c3[nH]2)cc1 gave a solubility kinetic of 2.8 µg/mL (≈ 9.48 µM). With O=C(NCCCl)C1Cc2c(ccc3ccccc23)O1 (stereo not given) the solubility kinetic was 40.2 µg/mL (≈ 146 µM). CSc1ccccc1C(=O)NC1CCCc2ccccc21 (stereo not given) showed a solubility kinetic of 11.7 µg/mL (≈ 39.3 µM). O=C(CNCc1ccccc1)Nc1ccc(Cl)cc1 gave a solubility kinetic of 38.6 µg/mL (≈ 140 µM). Molecule Cc1cc([N+](=O)[O-])c2c(c1C)C1C=CCC1C(c1ccccn1)N2 (stereo not given) has a solubility kinetic of 9.3 µg/mL (≈ 28.9 µM). In the case of Cc1cc(C)n(CCCNC(=O)c2ccc(C)o2)n1, the solubility kinetic is reported as > 39.2 µg/mL. In the case of COc1cccc(C=O)c1OCCN1C(=O)c2ccccc2C1=O, the solubility kinetic is reported as 42.6 µg/mL (≈ 131 µM). In the case of CC1(c2ccc3noc(-c4cccc(F)c4)c3c2)OCCO1, the solubility kinetic is reported as < 0.6 µg/mL. In the case of COc1ccc(C2=NOC(C(=O)NCc3cccnc3)C2)cc1OC (stereo not given), the solubility kinetic is reported as > 51.2 µg/mL. In the case of O=C(NC1=NCCS1)c1ccccc1OCc1ccc(F)cc1, the solubility kinetic is reported as < 0.4 µg/mL. For CCC1(CC)NC(=O)N(CC(=O)Nc2ccc(C)cc2C)C1=O, the solubility kinetic was > 47.6 µg/mL. Cc1cc2cc(CCNC(=O)CCCc3ccccc3)c(=O)[nH]c2cc1C gave a solubility kinetic of 1.7 µg/mL (≈ 4.69 µM). N/C(CCS(=O)(=O)c1ccc(Cl)cc1)=N\OC(=O)c1ccccc1C(F)(F)F showed a solubility kinetic of 57 µg/mL (≈ 131 µM). For CC(=O)Nc1ccc(C(=O)O)cc1, the solubility kinetic was > 26.9 µg/mL. CCNC(=S)Nc1sc2c(c1C#N)CCC(C)C2 (stereo not given) showed a solubility kinetic of 1.1 µg/mL (≈ 3.94 µM). In the case of O=C(c1cc(-c2ccc(F)cc2)nc2ccccc12)N1CCC1, the solubility kinetic is reported as > 46 µg/mL. In the case of Cc1ccc(CONC(=O)c2ccc([N+](=O)[O-])cc2)cc1, the solubility kinetic is reported as 2.1 µg/mL (≈ 7.34 µM). For O=C(Nc1ccc(N2CCOCC2)cc1)c1cnccn1, the solubility kinetic was > 42.6 µg/mL. In the case of COc1ccc(/C=C/C(=O)N(C)c2ccccc2C(=O)O)cc1, the solubility kinetic is reported as 45.2 µg/mL (≈ 145 µM). Molecule CCOC(=O)C1=C(CC)Nc2ccccc2N=C1N has a solubility kinetic of 14.3 µg/mL (≈ 55.1 µM). Work on O=C(N1CCN(S(=O)(=O)c2ccc(Cl)cc2)CC1)n1ccnc1 yielded a solubility kinetic of 52.8 µg/mL (≈ 149 µM). In the case of COc1ccccc1C(=O)OCC(=O)Nc1cccc(S(=O)(=O)NC2=NCCCCC2)c1, the solubility kinetic is reported as > 68.9 µg/mL. CCOC(=O)c1cnc(COc2ccc(OC)cc2)[nH]c1=O showed a solubility kinetic of 44.7 µg/mL (≈ 147 µM). For O=C1CCN(Cc2nc(-c3ccc(Cl)cc3)no2)CCN1, the solubility kinetic was > 46 µg/mL. O=C(NC(=S)Nc1ccccc1Br)C1CCCC1 gave a solubility kinetic of 2.7 µg/mL (≈ 8.25 µM). For Cc1cc(C)c(NC(=O)C2CC3CCC2C3)c(C)c1 (stereo not given), the solubility kinetic was 10.1 µg/mL (≈ 39.2 µM). Cc1nc2cc(NC(=O)c3ccc(Cl)cc3)ccc2n1C gave a solubility kinetic of 1 µg/mL (≈ 3.34 µM). With COCCOn1c(SCCOC)nc2ccccc2c1=O the solubility kinetic was > 46.6 µg/mL. With Cc1cc(N2CCCCC2C)nc(-c2ccccc2O)n1 (stereo not given) the solubility kinetic was 0.5 µg/mL (≈ 1.76 µM). CC(C)CC(=O)Nc1ccc(Oc2ccc3c(c2)C(=O)NC3=O)cc1 showed a solubility kinetic of 0.4 µg/mL (≈ 1.18 µM). In the case of COc1ccc(-n2c(CN3CCOCC3)nc3ccccc3c2=O)c(OC)c1, the solubility kinetic is reported as > 57.2 µg/mL. In the case of CCOC(=O)c1ccc(NC(=O)c2cc(C)nc3ccccc23)cc1, the solubility kinetic is reported as < 0.4 µg/mL. Work on O=C(COc1ccc(NC(=O)c2ccccc2)cc1)c1ccccc1 yielded a solubility kinetic of 1.1 µg/mL (≈ 3.32 µM). With Oc1ccc(C=NCCc2ccccc2)cc1 the solubility kinetic was > 33.8 µg/mL. With CC(C)NC[C@H](O)COc1cccc2ccccc12.Cl the solubility kinetic was > 44.4 µg/mL. For CC(C)(C)C(=O)Nc1cccc(S(=O)(=O)NC2=NCCC2)c1, the solubility kinetic was > 48.5 µg/mL. In the case of CCOC(=O)c1oc2ccccc2c1NC(=O)C(C)(C)C, the solubility kinetic is reported as 22.6 µg/mL (≈ 78.1 µM). For COc1ccccc1N1CCN(C(=O)Cc2ccc(Cl)cc2)CC1, the solubility kinetic was 50.6 µg/mL (≈ 147 µM). With CC(C)CNC(=O)C1CCN(CC2CCCCC2)CC1.O=C(O)C(=O)O the solubility kinetic was > 55.6 µg/mL. Molecule Cc1cc(=O)[nH]c(=O)n1Cc1ccccc1 has a solubility kinetic of 19.2 µg/mL (≈ 88.8 µM). In the case of Cc1cc(NC(=O)NC(C)(C(F)(F)F)C(F)(F)F)no1, the solubility kinetic is reported as > 45.8 µg/mL. CCN1CCN(S(=O)(=O)c2ccc(Cl)c(C(=O)NCc3nc4ccccc4[nH]3)c2)CC1 showed a solubility kinetic of 18.8 µg/mL (≈ 40.7 µM). For Cl.NC(CO)C12CC3CC(CC(C3)C1)C2 (stereo not given), the solubility kinetic was > 34.8 µg/mL. CNc1nc(-c2ccccc2)cc(C)c1S(C)(=O)=O showed a solubility kinetic of 22.8 µg/mL (≈ 82.5 µM). In the case of COc1ccccc1CNC(=O)c1cc(=O)c2ccccc2o1, the solubility kinetic is reported as 10.8 µg/mL (≈ 34.9 µM). With CCC(C)[C@H](NC(=O)NCCCOC(C)C)C(=O)OC (stereo not given in full) the solubility kinetic was > 43.3 µg/mL.
